According to patent US7893027B2, “Treatment of ocular wounds and ulcers” (The Board of Regents of the University of Oklahoma, priority 2002, dated 2011):

Assays:
Assay type in all cases: cell-based, human
[1] = system: CAP37 protein in stromal keratocytes; experiment: Immunocytochemical detection of CAP37 protein induction in stromal keratocytes
Procedure: (§1) For immunocytochemical analysis of HCEC and stromal keratocytes in culture, the cells were cultured on coverslips (CORNING COSTAR, Acton, Mass.) placed within 24-well tissue culture plates (CORNING COSTAR) until they reached 70% confluence and immunostained for CAP37 as described above except for the following changes. Cells were fixed in formol-acetone, pH 7.4 for 60 s at 4° C. (13) and were stained using the mouse anti-human CAP37 antiserum (1:500 dilution).
(§2) To determine if pro-inflammatory cytokines could induce CAP37 in HCEC and keratocytes we treated these cell cultures with TNF-α (0-10 ng/ml, Boehringer-Mannheim, Indianapolis, Ind.) and IL-1β (0-20 ng/ml, ENDOGEN, Woburn, Mass.) for 0-24 hr and assayed the cells immunocytochemically for the presence of CAP37 protein as described above. Untreated cell cultures were included for each test sample. In addition to protein detection, upregulation of CAP37 mRNA in response to TNF-α and IL-1β was measured by RT-PCR as described below.

CAP37 mRNA in HCEC = experiment: RT-PCR of CAP37 mRNA induction in HCEC
Procedure: as §2
Cultured HCEC were treated with 5 ng/ml TNF-α and 10 ng/ml IL-1β for 0-8 hr at 37° C. Total cellular RNA was isolated from untreated and treated HCEC according to vendor specifications (TRIzol™, Gibco BRL). After reverse-transcription of 5 μg of total RNA by random oligonucleotide priming (hexanucleotide mix, BOEHRINGER-MANNHEIM, GmbH, Germany), the resulting single stranded cDNA was amplified by PCR (PERKIN ELMER 2400 thermocycler, Norwalk, Conn.) using CAP37 specific primers ([…] (SEQ ID NO:9) and […] (SEQ ID NO:10)) designed for a 597 bp internal fragment of HL60-CAP37 (34). The reaction conditions for reverse transcription were 80 units of RNAse inhibitor (SIGMA), 8 μl of 5× strand buffer, 2 μl of random hexanucleotide mix, 1 mM dNTPs (GIBCO BRL), 10 mM DTT (GIBCO BRL), and 400 units of M-MLV RT (GIBCO BRL) in a total volume of […]. The reaction mix was incubated at 37° C. for 50 min followed by incubation at 70° C. for 15 min. The PCR mix (1.5 mM MgCl2, 0.2 mM dNTPs, 1.26 μM of each primer and 1 unit Taq polymerase, GIBCO BRL) was amplified for 30 cycles. Amplified DNA fragments were separated by electrophoresis on a 1% agarose gel and visualized by exposure to UV after ethidium bromide (0.5 μg/ml) staining. To assess the integrity of the cDNA, primers for human β-actin were used.

PECAM-1 (CD31) = experiment: Flow cytometry of PECAM-1 expression on HCEC; conditions: TNF-α control, after 12 hr
Procedure: Flow cytometry was used to assess the upregulation of PECAM-1 (CD31), and the integrin molecules β1 (CD29), β2 (CD18), β3 (CD61), β4 (CD104), α1 (CD49a), α2 (CD49b), α3 (CD49c), α4 (CD 49d), and αv (CD51). Human corneal epithelial cells were cultured as above and treated with CAP37 (0-2000 ng/ml) for 0-72 hr. A corresponding culture was left untreated at each time point. Following treatment with CAP37, cells were detached with 0.25% trypsin in 1 mM EDTA (pH 7.4, FISHER SCIENTIFIC, Pittsburgh, Pa.), washed twice in PBS and fixed with 0.125% paraformaldehyde (J.T. BAKER, Phillipsburg, N.J.) overnight at 4° C. The cells were washed in PBS and then incubated in 0.5% normal goat serum and 0.5% bovine serum albumin (BSA) in PBS for 30 min to block non-specific binding sites. Cells were incubated in the primary antibody (at concentrations described below) at 4° C. for 1 hr followed by the secondary antibody (FITC-goat anti-mouse IgG, PHARMINGEN, San Diego, Calif.) at 0.5 μg/10^6 cells and incubated at 4° C. for 30 min. The isotype control for these studies was FITC-labeled mouse isotype IgG1 (PHARMINGEN). The cells were analyzed by flow cytometry (FACS Calibur, BECTON DICKINSON, San Jose, Calif.). At least ten thousand cells were analyzed for each sample. […]

CAP37 protein in HCEC = experiment: Immunocytochemical detection of CAP37 protein induction in HCEC; conditions: for Time of maximum CAP37 protein induction: HCEC
Procedure: as §1, §2

Row | Substance | Induction of CAP37 protein [1] | Earliest expression of CAP37 mRNA (CAP37 mRNA in HCEC; TNF-α 5 ng/ml) [min] | Time of maximum CAP37 mRNA levels (CAP37 mRNA in HCEC; TNF-α 5 ng/ml, reduced by 4 hr) | Duration of effect on PECAM-1 expression (PECAM-1 (CD31)) | Time of maximum CAP37 protein induction (CAP37 protein in HCEC) [h] | Earliest detection of CAP37 protein (CAP37 protein in HCEC; HCEC treated with TNF-α) [min] | Initial expression of CAP37 mRNA post stimulation (CAP37 mRNA in HCEC; IL-1β 10 ng/ml) [h] | CAP37 mRNA (CAP37 mRNA in HCEC; IL-1β 10 ng/ml, 6 hr) | Time point at which expression of CAP37 protein was observed (CAP37 protein in HCEC; HCEC treated with IL-1β) [h]
1 | TNF-α | showed the induction of CAP37 protein | 15 | between 30 min and 2 hr | more sustained, lasting until 24 hr | 24 | 60 |  |  | 
2 | IL-1β: proinflammatory cytokine used to induce CAP37 | showed the induction of CAP37 protein |  |  |  | 24 |  | 1 | can be detected | 4
